Structures are written as SMILES.

The target in assay [1] is T1, D(2) dopamine receptor (Homo sapiens, UniProt P14416). Description: Antagonist activity against human D2 receptor expressed in CHO cells assessed as dopamine EC50 at 1 uM by [35S]GTPgammaS binding assay (Rvb = 225 +/- 45 nM). A general note: GTPγS is a poorly hydrolysed GTP analogue; its binding reports G protein activation.
The target of assay [2] is T1, D(2) dopamine receptor. Description: Antagonist activity against human D2 receptor expressed in CHO cells assessed as dopamine EC50 at 200 nM by [35S]GTPgammaS binding assay (Rvb = 225 +/- 45 nM).

T1 sequence (P14416 whole entry): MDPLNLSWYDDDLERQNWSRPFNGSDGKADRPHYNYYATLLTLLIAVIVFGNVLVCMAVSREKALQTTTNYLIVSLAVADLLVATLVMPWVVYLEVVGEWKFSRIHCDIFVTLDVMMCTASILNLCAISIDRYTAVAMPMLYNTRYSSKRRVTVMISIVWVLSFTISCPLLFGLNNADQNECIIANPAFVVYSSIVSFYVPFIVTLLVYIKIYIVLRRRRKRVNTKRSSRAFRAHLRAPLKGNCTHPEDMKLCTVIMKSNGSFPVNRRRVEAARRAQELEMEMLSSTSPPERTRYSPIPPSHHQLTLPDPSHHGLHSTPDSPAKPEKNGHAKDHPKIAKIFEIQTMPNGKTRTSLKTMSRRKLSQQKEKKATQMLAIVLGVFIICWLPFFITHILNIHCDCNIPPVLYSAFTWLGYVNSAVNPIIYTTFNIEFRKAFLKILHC

Usually EC50 stands for the concentration needed to bring the measured effect to its halfway point. `CCCN1CCC[C@@H](c2cccc(O)c2)C1` [Preclamol]: the “EC50” value in assay [1] is 844 nM; in assay [2], 376 nM.

The values are drawn from BindingDB's records for doi:10.1021/acs.jmedchem.5b01031 (Wayne State University, 2015).
